Assay: Radiation dose estimation (MIRDcalc, adult male) from mouse biodistribution
Set-up: species or system human
Conditions: for Absorbed dose estimates, Bone marrow / Absorbed dose estimates, Brain / Absorbed dose estimates, Heart / Absorbed dose estimates, Kidney / Absorbed dose estimates, L. intestine / Absorbed dose estimates, Liver / Absorbed dose estimates, Lung / Absorbed dose estimates, Muscle / Absorbed dose estimates, Pancreas / Absorbed dose estimates, S. intestine / Absorbed dose estimates, Spleen / Absorbed dose estimates, Stomach / Absorbed dose estimates, Thyroid / Absorbed dose estimates, Tumor: adult male, MIRDcalc
Source text: For estimation of the radiation dose absorbed, the blood, bone, and muscle mass of mice were assumed to be 8%, 5%, and 48% of body weight, respectively. The stomach was assumed to be distributed only in the wall, the heart, small intestine, and colon equally in the content and wall, and the colon was further assumed to be equally distributed in the left, right, and rectosigmoid. According to the International Commission on Radiological Protection, an equal distribution of radionuclide to trabecular and cortical bones was assumed. The non-decay-corrected activity from each source organ was converted into a percentage of the injected dose. The area under each organ’s activity curve from time 0 to infinity was calculated by extrapolation of biodistribution data. To correct for the different ratios of organ to total body weights in mouse and in human, we used the following organ correction factor (CR):
CR=organmass/totalbodymasshuman/organmass/totalbodymassmouse
Human organ weights and total body weights used data for adult males from previous reports. Tumor volume was converted from mouse-to-human total body weight ratio. According to the values, the radiation doses were calculated for an adult male patient using MIRDcalc v1.21 software (Society of Nuclear Medicine and Molecular Imaging). In the case of without administrating IPBA, calculation was performed using the data of a biodistribution study in our previous study.

[1] = With IPBA, ratio of absorbed dose estimates
[2] = Without IPBA, calculated from data of ref 16
[3] = Without IPBA, ratio of absorbed dose estimates, calculated from data of ref 16

In the case of “Ga-DOTA-K([^211At]APBA)-c(RGDfK) [[^211At]1]”, the “Absorbed dose to tumor tissue” value (1.85 MBq with IPBA) was 1.34 mGy, the “Absorbed dose estimates, Bone marrow” value (With IPBA) was 0.042 mGy/MBq and the “Absorbed dose estimates, Brain” value (With IPBA) was 0.017 mGy/MBq. For the same substance, the “Absorbed dose estimates, Heart” value (With IPBA) was 0.080 mGy/MBq, the “Absorbed dose estimates, Kidney” value (With IPBA) was 0.266 mGy/MBq and the “Absorbed dose estimates, L. intestine” value (With IPBA) was 0.056 mGy/MBq. The “Absorbed dose estimates, Liver” value (With IPBA) was 0.109 mGy/MBq, the “Absorbed dose estimates, Lung” value (With IPBA) was 0.203 mGy/MBq and the “Absorbed dose estimates, Muscle” value (With IPBA) was 0.300 mGy/MBq. For the same substance, the “Absorbed dose estimates, Pancreas” value (With IPBA) was 0.087 mGy/MBq, the “Absorbed dose estimates, S. intestine” value (With IPBA) was 0.052 mGy/MBq and the “Absorbed dose estimates, Spleen” value (With IPBA) was 0.117 mGy/MBq. The “Absorbed dose estimates, Stomach” value (With IPBA) was 0.051 mGy/MBq, the “Absorbed dose estimates, Thyroid” value (With IPBA) was 0.032 mGy/MBq and the “Absorbed dose estimates, Tumor” value (With IPBA) was 0.727 mGy/MBq. For the same substance, the “Tumor/normal tissue ratio, Brain” value [1] was 51.071, the “Tumor/normal tissue ratio, Heart” value [1] was 10.712 and the “Tumor/normal tissue ratio, Kidney” value [1] was 3.226. The “Tumor/normal tissue ratio, L. intestine” value [1] was 15.349, the “Tumor/normal tissue ratio, Liver” value [1] was 7.872 and the “Tumor/normal tissue ratio, Lung” value [1] was 4.227. The “Tumor/normal tissue ratio, Muscle” value [1] was 2.860, the “Tumor/normal tissue ratio, Pancreas” value [1] was 9.873 and the “Tumor/normal tissue ratio, S. intestine” value [1] was 16.437. The “Tumor/normal tissue ratio, Spleen” value [1] was 7.333, the “Tumor/normal tissue ratio, Stomach” value [1] was 16.791 and the “Tumor/normal tissue ratio, Thyroid” value [1] was 26.729. The “Absorbed dose estimates, Bone marrow” value [2] was 0.132 mGy/MBq, the “Absorbed dose estimates, Brain” value [2] was 0.218 mGy/MBq and the “Absorbed dose estimates, Heart” value [2] was 0.381 mGy/MBq. The “Absorbed dose estimates, Kidney” value [2] was 0.427 mGy/MBq, the “Absorbed dose estimates, L. intestine” value [2] was 0.193 mGy/MBq and the “Absorbed dose estimates, Liver” value [2] was 0.319 mGy/MBq. For the same substance, the “Absorbed dose estimates, Lung” value [2] was 0.976 mGy/MBq, the “Absorbed dose estimates, Muscle” value [2] was 0.557 mGy/MBq and the “Absorbed dose estimates, Pancreas” value [2] was 0.246 mGy/MBq. The “Absorbed dose estimates, S. intestine” value [2] was 0.190 mGy/MBq, the “Absorbed dose estimates, Spleen” value [2] was 0.354 mGy/MBq and the “Absorbed dose estimates, Stomach” value [2] was 0.176 mGy/MBq. For the same substance, the “Absorbed dose estimates, Thyroid” value [2] was 0.111 mGy/MBq, the “Absorbed dose estimates, Tumor” value [2] was 0.858 mGy/MBq and the “Tumor/normal tissue ratio, Bone marrow” value [3] was 6.500. For the same substance, the “Tumor/normal tissue ratio, Brain” value [3] was 3.936, the “Tumor/normal tissue ratio, Heart” value [3] was 2.252 and the “Tumor/normal tissue ratio, Kidney” value [3] was 2.009. For the same substance, the “Tumor/normal tissue ratio, L. intestine” value [3] was 4.446, the “Tumor/normal tissue ratio, Liver” value [3] was 2.690 and the “Tumor/normal tissue ratio, Lung” value [3] was 0.879. For the same substance, the “Tumor/normal tissue ratio, Muscle” value [3] was 1.540, the “Tumor/normal tissue ratio, Pancreas” value [3] was 3.488 and the “Tumor/normal tissue ratio, S. intestine” value [3] was 4.516. The “Tumor/normal tissue ratio, Spleen” value [3] was 2.424, the “Tumor/normal tissue ratio, Stomach” value [3] was 4.875 and the “Tumor/normal tissue ratio, Thyroid” value [3] was 7.730.
